Assay results published in patent publication US9823260B2, “Method to increase bioavailability of the delta-opioid receptor for management of pain and neuropsychiatric disorders” (priority 2014, dated 2017).

How the values were obtained:
Format in all cases: in vivo
mice = assay: Mechanical hyperalgesia in a CFA model for chronic pain; details: CFA 72 hours; bpv(phen) 10 mg/kg SC, four hours later SNC 80 3 mg/kg IP
Procedure: (§1) In this experiment, thermal nociception was determined by using the warm water tail withdrawal assay, with a cut-off of 12 s at 52.5° C. water temperature. After 3 basal measurements, mice were injected with vehicle or bpv(phen)(10 mg/kg SC), and returned to their home cages. Four hours post-injection, tail immersion responses were determined and mice were injected with vehicle or SNC80 (10 mg/kg IP). They were subsequently tested every 15 minutes for 90 minutes. All animals were male C57b16J mice of 9-10 weeks of age, n=8 per group. […] Mechanical allodynia was tested using standard protocols (such as the protocols disclosed by Pradhan et al., 2009, PMID: 1941254) on male C57b16J mice 9-10 weeks old, n=8 per group. Mice were injected with vehicle or bpv(phen)(10 mg/kg), and tested four hours after for reduced allodynia in response to SNC-80. […] Mechanical hyperalgesia was tested in a CFA model for chronic pain. After baseline recordings, mice were injected with CFA (13 μl, intraplantar) and were tested 72 hours later. On the test day, mice received either bpv(phen)(10 mg/kg SC) or vehicle. […]
(§2) As shown next in FIG. 12 (left), thermal nociception was determined by using the warm water tail withdrawal assay, with a cut-off of 12 s at 52.5° C. water temperature. […] Four hours post-injection, tail immersion responses were determined and mice were injected with vehicle or SNC80 (10 mg/kg IP). […]

male C57BL6J mice [1] = assay: Warm water tail withdrawal assay (thermal nociception)
Procedure: (§3) The first three graphs in FIG. 2 show the function response of DOR on the surface. An EPAC FRET sensor was used with live cell imaging under physiologic conditions of 37° C. The modulation of the cAMP activity was determined by performing a ratiometric analysis of an the donor fluorophore (Cyan Fluorescent Protein) image divided by the FRET image yielding a blue color for low cAMP and red for high cAMP. DOR was concomitantly visualized by fluorescent tagging. […] The two images on the bottom-right of FIG. 2 show data in an experiment in which mechanical allodynia and tail withdrawal latency was performed in male C57BL6J mice 9-10 weeks old to determine the effects of the DOR agonist SNC-80 in the presence or absence of PTEN inhibition. […] All mice received SNC-80 (10 mg/kg IP). Additionally, pretreatment of mice with the PTEN inhibitor bpv(Phen) increased the antinociceptive effect of the DOR agonist SNC-80. Together, these methods can be used for stimulated DOR delivery as a convergent strategy for improving the efficacy of DOR agonists.
as §1, with “Four hours post-injection, tail immersion responses were determined and mice were injected with vehicle or SNC80 (10 mg/kg IP).” left out, “pain.” for “pain. After baseline recordings, mice were injected with CFA (13 μl, intraplantar) and were tested 72 hours later. On the test day, mice received either bpv(phen)(10 mg/kg SC) or vehicle.”
As shown next in FIG. 12 (left), thermal nociception was determined by using the warm water tail withdrawal assay, with a cut-off of 12 s at 52.5° C. water temperature. […]

male C57BL6J mice [2] = assay: Mechanical allodynia test
Procedure: as §3, with “Additionally, pretreatment of mice with the PTEN inhibitor bpv(Phen) increased the antinociceptive effect of the DOR agonist SNC-80. Together, these methods can be used for stimulated DOR delivery as a convergent strategy for improving the efficacy of DOR agonists.” left out
In this experiment, thermal nociception was determined by using the warm water tail withdrawal assay, with a cut-off of 12 s at 52.5° C. water temperature. […] Four hours post-injection, tail immersion responses were determined and mice were injected with vehicle or SNC80 (10 mg/kg IP). […]
as §2

[3] = 2 hour pretreatment with bpV(phen) 10 mg/kg, SNC-80 10 mg/kg IP, versus vehicle

O.O.O.OO.OO.[K+].[OH-].[V].c1cnc2c(c1)ccc1cccnc12 [bpV(phen)]
mechanical hyperalgesia response to SNC 80 (mice): showed a response to SNC80 | tail withdrawal latency with SNC-80 (male C57BL6J mice [1]; [3]): increased compared to vehicle control treated mice | analgesic response to PTEN inhibition alone (male C57BL6J mice [1]; bpV(phen) without SNC-80, mechanical allodynia and tail withdrawal): did not induce an analgesic response | tail immersion response versus baseline without SNC80 (male C57BL6J mice [1]; vehicle or bpv(phen) 10 mg/kg SC, no SNC80, 52.5° C., tested every 15 minutes for 90 minutes): did not show any significant deviation from the baseline | mechanical allodynia (threshold) with SNC-80 (male C57BL6J mice [2]; [3]): increased compared to vehicle control treated mice | reduced allodynia in response to SNC-80 (male C57BL6J mice [2]; bpv(phen) 10 mg/kg, tested four hours after): showed a response
